Data on 65 compounds can be found in US6979686B1, “Substituted pyrazoles as p38 kinase inhibitors” (Pharmacia Corporation, priority 2001, dated 2005).

Molecules are shown by their SMILES. Bounds are passed on as bounds.

T1 sequence (Q16539 whole entry): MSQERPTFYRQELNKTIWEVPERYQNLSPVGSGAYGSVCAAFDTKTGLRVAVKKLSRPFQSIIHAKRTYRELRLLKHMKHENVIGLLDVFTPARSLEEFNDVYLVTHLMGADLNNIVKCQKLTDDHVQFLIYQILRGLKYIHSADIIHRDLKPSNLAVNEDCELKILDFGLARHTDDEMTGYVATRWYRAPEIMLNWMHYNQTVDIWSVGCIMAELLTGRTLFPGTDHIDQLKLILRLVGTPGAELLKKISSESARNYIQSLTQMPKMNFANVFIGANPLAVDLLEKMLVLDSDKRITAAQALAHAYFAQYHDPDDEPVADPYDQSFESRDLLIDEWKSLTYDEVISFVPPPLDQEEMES

The test has as its target T1, human p38 kinase alpha (Homo sapiens, UniProt Q16539).
T1 construct: GST (N, cleaved yes); made in house; host or cells: E. coli DH10B
Briefly: p38 kinase in vitro assay, phosphorylation of biotinylated PHAS-I with 32P-ATP. The following applies: in vitro P38-alpha kinase inhibition; read-out: P38 alpha kinase IC50. In kind it is biochemical.
With `CC(NS(=O)(=O)c1ccc(C#N)cc1)c1[nH]nc(-c2ccc(F)cc2)c1-c1ccncc1` (centres unmarked) [Example B-0656], the IC50 is 7 nM. `CC(NS(=O)(=O)c1ccc(CNC(=O)c2ccccc2)s1)c1[nH]nc(-c2ccc(F)cc2)c1-c1ccncc1` (centres unmarked) [Example B-0657]: the IC50 stood at 170 nM. In the case of `Cc1c(C)c(S(=O)(=O)NC(C)c2[nH]nc(-c3ccc(F)cc3)c2-c2ccncc2)c(C)c2c1OC(C)(C)CC2` (centres unmarked) [Example B-0659], the IC50 came to 2640 nM. With `CC(NS(=O)(=O)c1ccc(-c2ccccn2)s1)c1[nH]nc(-c2ccc(F)cc2)c1-c1ccncc1` (centres unmarked) [Example B-0660] the figure was 88 nM; with `CC(NS(=O)(=O)c1cc(S(=O)(=O)c2ccccc2)cs1)c1[nH]nc(-c2ccc(F)cc2)c1-c1ccncc1` (centres unmarked) [Example B-0661], under 100 nM. With `CC(NS(=O)(=O)c1ccc(-c2ccon2)s1)c1[nH]nc(-c2ccc(F)cc2)c1-c1ccncc1` (centres unmarked) [Example B-0662] the figure was under 100 nM; with `CC(NS(=O)(=O)c1cn(C)cn1)c1[nH]nc(-c2ccc(F)cc2)c1-c1ccncc1` (centres unmarked) [Example B-0663], 880 nM; with `CC(NS(=O)(=O)c1ccc(S(=O)(=O)c2ccccc2)s1)c1[nH]nc(-c2ccc(F)cc2)c1-c1ccncc1` (centres unmarked) [Example B-0665], 470 nM. As to `CC(NS(=O)(=O)c1ccccc1S(C)(=O)=O)c1[nH]nc(-c2ccc(F)cc2)c1-c1ccncc1` (centres unmarked) [Example B-0666], the IC50 is 170 nM.

Consider `CC(NS(=O)(=O)c1cccc2cnccc12)c1[nH]nc(-c2ccc(F)cc2)c1-c1ccncc1` (centres unmarked) [Example B-0667], for which the half-inhibitory concentration (IC50) was 830 nM.

`Cc1ccc(S(C)(=O)=O)cc1S(=O)(=O)NC(C)c1[nH]nc(-c2ccc(F)cc2)c1-c1ccncc1` (centres unmarked) [Example B-0668]: the IC50 was found to be 270 nM. With `Cc1ccccc1C(=O)NC(C)c1[nH]nc(-c2ccc(F)cc2)c1-c1ccncc1` (centres unmarked) [Example B-0669] the figure was 890 nM. For `CC(NC(=O)c1ccc(Cl)cc1)c1[nH]nc(-c2ccc(F)cc2)c1-c1ccncc1` (centres unmarked) [Example B-0670] the value was 3150 nM; for `CC(NC(=O)c1cc2ccccc2s1)c1[nH]nc(-c2ccc(F)cc2)c1-c1ccncc1` (centres unmarked) [Example B-0673], 8540 nM.

As to `CC(C)c1cc(C(C)C)c(C(=O)NC(C)c2[nH]nc(-c3ccc(F)cc3)c2-c2ccncc2)c(C(C)C)c1` (centres unmarked) [Example B-0674], the half-inhibitory concentration (IC50) amounted to 2810 nM.

On to `CC(NC(=O)c1ccc(F)c(F)c1)c1[nH]nc(-c2ccc(F)cc2)c1-c1ccncc1` (centres unmarked) [Example B-0678], for which the IC50 amounted to 380 nM. For `CC(NC(=O)c1c(F)ccc(F)c1F)c1[nH]nc(-c2ccc(F)cc2)c1-c1ccncc1` (centres unmarked) [Example B-0680], the IC50 was 420 nM. For `CC(NC(=O)c1cccc(Cl)c1Cl)c1[nH]nc(-c2ccc(F)cc2)c1-c1ccncc1` (centres unmarked) [Example B-0681] the value was 1960 nM; for `Cc1cc(C)c(C(=O)NC(C)c2[nH]nc(-c3ccc(F)cc3)c2-c2ccncc2)c(C)c1` (centres unmarked) [Example B-0682], 760 nM; for `CC(NC(=O)c1cc(C(F)(F)F)ccc1F)c1[nH]nc(-c2ccc(F)cc2)c1-c1ccncc1` (centres unmarked) [Example B-0683], 13000 nM. Take `CC(NC(=O)c1c(F)cc(F)cc1F)c1[nH]nc(-c2ccc(F)cc2)c1-c1ccncc1` (centres unmarked) [Example B-0684]: the IC50 amounted to 540 nM. With `CC(NC(=O)c1ccc(C(F)(F)F)cc1F)c1[nH]nc(-c2ccc(F)cc2)c1-c1ccncc1` (centres unmarked) [Example B-0685] the figure was 15400 nM. As for `CC(NC(=O)c1c(F)cccc1C(F)(F)F)c1[nH]nc(-c2ccc(F)cc2)c1-c1ccncc1` (centres unmarked) [Example B-0686], the IC50 came out at 420 nM. On to `CC(NC(=O)c1ccc(F)c(C(F)(F)F)c1)c1[nH]nc(-c2ccc(F)cc2)c1-c1ccncc1` (centres unmarked) [Example B-0689], for which the IC50 came to 14600 nM. As to `CC(NC(=O)c1ccccc1Cl)c1[nH]nc(-c2ccc(F)cc2)c1-c1ccncc1` (centres unmarked) [Example B-0691], the IC50 stood at 160 nM. With `CC(NC(=O)c1cccc(F)c1F)c1[nH]nc(-c2ccc(F)cc2)c1-c1ccncc1` (centres unmarked) [Example B-0695] the figure was 230 nM. With `CC(NC(=O)c1c(Cl)cccc1Cl)c1[nH]nc(-c2ccc(F)cc2)c1-c1ccncc1` (centres unmarked) [Example B-0696] the figure was 85 nM.

Regarding `CC(NC(=O)c1cc(F)ccc1F)c1[nH]nc(-c2ccc(F)cc2)c1-c1ccncc1` (centres unmarked) [Example B-0697], the IC50 was 450 nM. `CC(NC(=O)c1cc(F)c(F)cc1F)c1[nH]nc(-c2ccc(F)cc2)c1-c1ccncc1` (centres unmarked) [Example B-0698]: the IC50 was determined as 2330 nM.

As to `CC(NC(=O)c1c(F)cccc1F)c1[nH]nc(-c2ccc(F)cc2)c1-c1ccncc1` (centres unmarked) [Example B-0700], the IC50 was found to be 240 nM. With `CC(NC(=O)c1cccc(Cl)c1)c1[nH]nc(-c2ccc(F)cc2)c1-c1ccncc1` (centres unmarked) [Example B-0702] the figure was 36 nM; with `CC(NC(=O)c1ccccc1Br)c1[nH]nc(-c2ccc(F)cc2)c1-c1ccncc1` (centres unmarked) [Example B-0703], 120 nM.

Take `Cc1noc(C)c1C(=O)NC(C)c1[nH]nc(-c2ccc(F)cc2)c1-c1ccncc1` (centres unmarked) [Example B-0706]: the IC50 came to 440 nM. With `O=S(=O)(NC(Cc1ccccc1)c1[nH]nc(-c2ccc(F)cc2)c1-c1ccncc1)c1ccc(F)cc1` (centres unmarked) [Example B-0707] the figure was 1700 nM. For `O=S(=O)(NC(Cc1ccccc1)c1[nH]nc(-c2ccc(F)cc2)c1-c1ccncc1)c1ccccc1` (centres unmarked) [Example B-0708] the value was 2100 nM; for `CC(C)S(=O)(=O)NC(Cc1ccccc1)c1[nH]nc(-c2ccc(F)cc2)c1-c1ccncc1` (centres unmarked) [Example B-0709], 840 nM; for `O=S(=O)(C=Cc1ccccc1)NC(Cc1ccccc1)c1[nH]nc(-c2ccc(F)cc2)c1-c1ccncc1` (centres unmarked) [Example B-0710], 1990 nM. With `O=S(=O)(Cc1ccccc1)NC(Cc1ccccc1)c1[nH]nc(-c2ccc(F)cc2)c1-c1ccncc1` (centres unmarked) [Example B-0711] the figure was 1990 nM; with `O=S(=O)(NC(Cc1ccccc1)c1[nH]nc(-c2ccc(F)cc2)c1-c1ccncc1)c1ccc(F)cc1F` (centres unmarked) [Example B-0712], 2900 nM.

Take `O=S(=O)(NC(Cc1ccccc1)c1[nH]nc(-c2ccc(F)cc2)c1-c1ccncc1)C(F)(F)F` (centres unmarked) [Example B-0713]: the IC50 came out at 4300 nM. For `O=S(=O)(NC(Cc1ccccc1)c1[nH]nc(-c2ccc(F)cc2)c1-c1ccncc1)c1ccccc1F` (centres unmarked) [Example B-0714] the value was 3700 nM; for `CCCCS(=O)(=O)NC(Cc1ccccc1)c1[nH]nc(-c2ccc(F)cc2)c1-c1ccncc1` (centres unmarked) [Example B-0716], 4600 nM. For `COc1ccc(S(=O)(=O)NC(Cc2ccccc2)c2[nH]nc(-c3ccc(F)cc3)c2-c2ccncc2)cc1` (centres unmarked) [Example B-0719] the value was 3400 nM; for `O=S(=O)(NC(Cc1ccccc1)c1[nH]nc(-c2ccc(F)cc2)c1-c1ccncc1)c1cccs1` (centres unmarked) [Example B-0720], 1300 nM; for `Cc1ccc(S(=O)(=O)NC(Cc2ccccc2)c2[nH]nc(-c3ccc(F)cc3)c2-c2ccncc2)cc1` (centres unmarked) [Example B-0721], 3800 nM.

As for `CC(C)NC(=O)NC(Cc1ccccc1)c1[nH]nc(-c2ccc(F)cc2)c1-c1ccncc1` (centres unmarked) [Example B-0723], the IC50 was 470 nM.

Take `O=C(NCc1ccccc1)NC(Cc1ccccc1)c1[nH]nc(-c2ccc(F)cc2)c1-c1ccncc1` (centres unmarked) [Example B-0725]: the IC50 is 9700 nM. For `O=C(NC(Cc1ccccc1)c1[nH]nc(-c2ccc(F)cc2)c1-c1ccncc1)N1CCOCC1` (centres unmarked) [Example B-0727], the IC50 amounted to 510 nM. With `O=C(Nc1ccc(F)cc1)NC(Cc1ccccc1)c1[nH]nc(-c2ccc(F)cc2)c1-c1ccncc1` (centres unmarked) [Example B-0728] the figure was 20000 nM; with `CN(C)C(=O)NC(Cc1ccccc1)c1[nH]nc(-c2ccc(F)cc2)c1-c1ccncc1` (centres unmarked) [Example B-0729], 870 nM. With `Cc1cccc(C)c1NC(=O)NC(Cc1ccccc1)c1[nH]nc(-c2ccc(F)cc2)c1-c1ccncc1` (centres unmarked) [Example B-0733] the figure was 32000 nM.

`C=CCNC(=O)NC(Cc1ccccc1)c1[nH]nc(-c2ccc(F)cc2)c1-c1ccncc1` (centres unmarked) [Example B-0734]: the concentration for half-maximal inhibition (IC50) came out at 920 nM. As to `CCCNC(=O)NC(Cc1ccccc1)c1[nH]nc(-c2ccc(F)cc2)c1-c1ccncc1` (centres unmarked) [Example B-0735], the IC50 was found to be 1000 nM.

On to `CC(NC(=O)NC(Cc1ccccc1)c1[nH]nc(-c2ccc(F)cc2)c1-c1ccncc1)c1ccccc1` (centres unmarked) [Example B-0736], for which the IC50 came out at 26000 nM. For `CC(NC(=O)NC(Cc1ccccc1)c1[nH]nc(-c2ccc(F)cc2)c1-c1ccncc1)c1ccccc1` (centres unmarked) [Example B-0739] the value was 4100 nM; for `O=C(Nc1cccc(F)c1)NC(Cc1ccccc1)c1[nH]nc(-c2ccc(F)cc2)c1-c1ccncc1` (centres unmarked) [Example B-0740], 4400 nM; for `COc1ccc(NC(=O)NC(Cc2ccccc2)c2[nH]nc(-c3ccc(F)cc3)c2-c2ccncc2)cc1` (centres unmarked) [Example B-0741], 26000 nM. For `CCNC(=O)NC(Cc1ccccc1)c1[nH]nc(-c2ccc(F)cc2)c1-c1ccncc1` (centres unmarked) [Example B-0743] the value was 1200 nM; for `COc1ccc(NC(=O)NC(Cc2ccccc2)c2[nH]nc(-c3ccc(F)cc3)c2-c2ccncc2)c(OC)c1` (centres unmarked) [Example B-0744], 23000 nM; for `O=C(Cc1cccs1)NC(Cc1ccccc1)c1[nH]nc(-c2ccc(F)cc2)c1-c1ccncc1` (centres unmarked) [Example B-0745], 6000 nM.

In the case of `CCCOC(=O)NC(Cc1ccccc1)c1[nH]nc(-c2ccc(F)cc2)c1-c1ccncc1` (centres unmarked) [Example B-0747], the IC50 turned out to be 1100 nM. With `CCOC(=O)NC(Cc1ccccc1)c1[nH]nc(-c2ccc(F)cc2)c1-c1ccncc1` (centres unmarked) [Example B-0748] the figure was 1200 nM. For `O=C(NC(Cc1ccccc1)c1[nH]nc(-c2ccc(F)cc2)c1-c1ccncc1)C1CCCN1` (centres unmarked) [Example B-0749] the value was 4400 nM.

For the compound `O=C(NC(Cc1ccccc1)c1[nH]nc(-c2ccc(F)cc2)c1-c1ccncc1)C1CCCN1` (centres unmarked) [Example B-0750], the IC50 was 920 nM.

Take `CC(C)OC(=O)NC(Cc1ccccc1)c1[nH]nc(-c2ccc(F)cc2)c1-c1ccncc1` (centres unmarked) [Example B-0751]: the IC50 came to 1600 nM.
